The subject of the data set is endothelial cells. Put plainly: LDH release (membrane integrity). Particulars: 1 mM, 60 minutes; maximum = 1% Triton.

Procedure: To test for membrane integrity, endothelial cells were assayed for release of lactate dehydrogenase (LDH) into the culture medium. Subsequent to incubation with flavoring compounds (1 mM each) for 1 hour, 20-μl aliquots of the culture media were mixed with 200 μl of reagent buffer (1 mM pyruvate and 0.1 mM NAD^+ in PBS). The decrease in light absorbance at 340 nm was monitored using a diode array spectrophotometer (Hewlett Packard 8452A). Maximum LDH release was determined by treating the cells with 1% Triton X-100.

With `C=CCc1ccc(O)c(OC)c1` [Eugenol, 2-Methoxy-4-(prop-2-en-1-yl)phenol], the “LDH release (% of maximum)” value is given as 0.4±0.23 % of maximum.
